Test results: the NIST ThermoML archive (doi:10.1016/j.jct.2017.03.006)
± gives the expanded uncertainty stated by the source.

What was measured:
[1] = molar heat capacity at constant pressure; conditions: Liquid, Flow calorimetry
[2] = Liquid; for mass density: Vibrating tube method; for viscosity: Concentric cylinders viscometry

## CCC(C)O (stereo not drawn) [butan-2-ol]
[1]; 293.15 K, 100 kPa
  molar heat capacity at constant pressure: 189.1 ± 2.7 J/K/mol
[1]; 293.15 K, 5000 kPa
  molar heat capacity at constant pressure: 187.1 ± 2.6 J/K/mol
[1]; 293.15 K, 10000 kPa
  molar heat capacity at constant pressure: 185.5 ± 2.6 J/K/mol
[1]; 293.15 K, 15000 kPa
  molar heat capacity at constant pressure: 185.2 ± 2.6 J/K/mol
[1]; 293.15 K, 20000 kPa
  molar heat capacity at constant pressure: 183.6 ± 2.6 J/K/mol
[1]; 293.15 K, 25000 kPa
  molar heat capacity at constant pressure: 182.7 ± 2.6 J/K/mol
[1]; 313.15 K, 100 kPa
  molar heat capacity at constant pressure: 214.9 ± 3 J/K/mol
[1]; 313.15 K, 5000 kPa
  molar heat capacity at constant pressure: 213.1 ± 3 J/K/mol
[1]; 313.15 K, 10000 kPa
  molar heat capacity at constant pressure: 211.1 ± 3 J/K/mol
[1]; 313.15 K, 15000 kPa
  molar heat capacity at constant pressure: 209.4 ± 2.9 J/K/mol
[1]; 313.15 K, 20000 kPa
  molar heat capacity at constant pressure: 207.2 ± 2.9 J/K/mol
[1]; 313.15 K, 25000 kPa
  molar heat capacity at constant pressure: 204.9 ± 2.9 J/K/mol
[2]; 273.15 K, 100 kPa
  mass density: 822.3 ± 0.7 kg/m3
[2]; 273.15 K, 1000 kPa
  mass density: 822.7 ± 0.7 kg/m3
[2]; 273.15 K, 2000 kPa
  mass density: 823.4 ± 0.7 kg/m3
[2]; 273.15 K, 5000 kPa
  mass density: 825.4 ± 0.7 kg/m3
[2]; 273.15 K, 10000 kPa
  mass density: 828.7 ± 0.7 kg/m3
[2]; 273.15 K, 15000 kPa
  mass density: 831.8 ± 0.7 kg/m3
[2]; 273.15 K, 20000 kPa
  mass density: 834.7 ± 0.7 kg/m3
[2]; 273.15 K, 30000 kPa
  mass density: 840.4 ± 0.8 kg/m3
[2]; 273.15 K, 40000 kPa
  mass density: 845.7 ± 0.8 kg/m3
[2]; 273.15 K, 50000 kPa
  mass density: 850.7 ± 0.8 kg/m3
[2]; 273.15 K, 60000 kPa
  mass density: 855.4 ± 0.8 kg/m3
[2]; 273.15 K, 70000 kPa
  mass density: 859.9 ± 0.8 kg/m3
[2]; 273.15 K, 80000 kPa
  mass density: 864.3 ± 0.8 kg/m3
[2]; 273.15 K, 90000 kPa
  mass density: 868.4 ± 0.9 kg/m3
[2]; 273.15 K, 100000 kPa
  mass density: 872.4 ± 0.9 kg/m3
[2]; 273.15 K, 110000 kPa
  mass density: 876.3 ± 0.9 kg/m3
[2]; 273.15 K, 120000 kPa
  mass density: 879.9 ± 0.9 kg/m3
[2]; 273.15 K, 130000 kPa
  mass density: 883.5 ± 0.9 kg/m3
[2]; 273.15 K, 140000 kPa
  mass density: 887.2 ± 0.9 kg/m3
[2]; 293.15 K, 100 kPa
  viscosity: 3.725 ± 0.076 mPa·s
  mass density: 806.3 ± 0.7 kg/m3
[2]; 293.15 K, 1000 kPa
  mass density: 807 ± 0.7 kg/m3
[2]; 293.15 K, 2000 kPa
  mass density: 807.8 ± 0.7 kg/m3
[2]; 293.15 K, 5000 kPa
  mass density: 810 ± 0.7 kg/m3
[2]; 293.15 K, 10000 kPa
  mass density: 813.6 ± 0.7 kg/m3
[2]; 293.15 K, 15000 kPa
  mass density: 817 ± 0.7 kg/m3
[2]; 293.15 K, 20000 kPa
  mass density: 820.2 ± 0.7 kg/m3
[2]; 293.15 K, 30000 kPa
  mass density: 826.5 ± 0.8 kg/m3
[2]; 293.15 K, 40000 kPa
  mass density: 832.3 ± 0.8 kg/m3
[2]; 293.15 K, 50000 kPa
  mass density: 837.7 ± 0.8 kg/m3
[2]; 293.15 K, 60000 kPa
  mass density: 842.8 ± 0.8 kg/m3
[2]; 293.15 K, 70000 kPa
  mass density: 847.7 ± 0.8 kg/m3
[2]; 293.15 K, 80000 kPa
  mass density: 852.3 ± 0.9 kg/m3
[2]; 293.15 K, 90000 kPa
  mass density: 856.7 ± 0.9 kg/m3
[2]; 293.15 K, 100000 kPa
  mass density: 860.9 ± 0.9 kg/m3
[2]; 293.15 K, 110000 kPa
  mass density: 865 ± 0.9 kg/m3
[2]; 293.15 K, 120000 kPa
  mass density: 868.8 ± 1 kg/m3
[2]; 293.15 K, 130000 kPa
  mass density: 872.7 ± 1 kg/m3
[2]; 293.15 K, 140000 kPa
  mass density: 876.3 ± 1 kg/m3
[2]; 303.15 K, 100 kPa
  viscosity: 2.555 ± 0.053 mPa·s
[2]; 313.15 K, 100 kPa
  viscosity: 1.814 ± 0.038 mPa·s
  mass density: 789.4 ± 0.7 kg/m3
[2]; 313.15 K, 1000 kPa
  mass density: 790.1 ± 0.7 kg/m3
[2]; 313.15 K, 2000 kPa
  mass density: 791 ± 0.7 kg/m3
[2]; 313.15 K, 5000 kPa
  mass density: 793.5 ± 0.7 kg/m3
[2]; 313.15 K, 10000 kPa
  mass density: 797.5 ± 0.7 kg/m3
[2]; 313.15 K, 15000 kPa
  mass density: 801.4 ± 0.7 kg/m3
[2]; 313.15 K, 20000 kPa
  mass density: 805.1 ± 0.7 kg/m3
[2]; 313.15 K, 30000 kPa
  mass density: 811.9 ± 0.8 kg/m3
[2]; 313.15 K, 40000 kPa
  mass density: 818.3 ± 0.8 kg/m3
[2]; 313.15 K, 50000 kPa
  mass density: 824.1 ± 0.8 kg/m3
[2]; 313.15 K, 60000 kPa
  mass density: 829.6 ± 0.8 kg/m3
[2]; 313.15 K, 70000 kPa
  mass density: 835 ± 0.9 kg/m3
[2]; 313.15 K, 80000 kPa
  mass density: 839.9 ± 0.9 kg/m3
[2]; 313.15 K, 90000 kPa
  mass density: 844.6 ± 0.9 kg/m3
[2]; 313.15 K, 100000 kPa
  mass density: 849 ± 0.9 kg/m3
[2]; 313.15 K, 110000 kPa
  mass density: 853.3 ± 1 kg/m3
[2]; 313.15 K, 120000 kPa
  mass density: 857.5 ± 1 kg/m3
[2]; 313.15 K, 130000 kPa
  mass density: 861.5 ± 1 kg/m3
[2]; 313.15 K, 140000 kPa
  mass density: 865.4 ± 1 kg/m3
[2]; 323.15 K, 100 kPa
  viscosity: 1.331 ± 0.028 mPa·s
[2]; 333.15 K, 100 kPa
  viscosity: 1.007 ± 0.021 mPa·s
  mass density: 770.7 ± 0.7 kg/m3
[2]; 333.15 K, 1000 kPa
  mass density: 771.6 ± 0.7 kg/m3
[2]; 333.15 K, 2000 kPa
  mass density: 772.6 ± 0.7 kg/m3
[2]; 333.15 K, 5000 kPa
  mass density: 775.5 ± 0.7 kg/m3
[2]; 333.15 K, 10000 kPa
  mass density: 780.1 ± 0.7 kg/m3
[2]; 333.15 K, 15000 kPa
  mass density: 784.4 ± 0.7 kg/m3
[2]; 333.15 K, 20000 kPa
  mass density: 788.6 ± 0.7 kg/m3
[2]; 333.15 K, 30000 kPa
  mass density: 796.2 ± 0.8 kg/m3
[2]; 333.15 K, 40000 kPa
  mass density: 803.2 ± 0.8 kg/m3
[2]; 333.15 K, 50000 kPa
  mass density: 809.6 ± 0.8 kg/m3
[2]; 333.15 K, 60000 kPa
  mass density: 815.7 ± 0.9 kg/m3
[2]; 333.15 K, 70000 kPa
  mass density: 821.4 ± 0.9 kg/m3
[2]; 333.15 K, 80000 kPa
  mass density: 826.7 ± 0.9 kg/m3
[2]; 333.15 K, 90000 kPa
  mass density: 831.8 ± 0.9 kg/m3
[2]; 333.15 K, 100000 kPa
  mass density: 836.6 ± 1 kg/m3
[2]; 333.15 K, 110000 kPa
  mass density: 841.2 ± 1 kg/m3
[2]; 333.15 K, 120000 kPa
  mass density: 845.5 ± 1 kg/m3
[2]; 333.15 K, 130000 kPa
  mass density: 849.8 ± 1.1 kg/m3
[2]; 333.15 K, 140000 kPa
  mass density: 853.9 ± 1.1 kg/m3
